The nature of assay [1]: Inhibition of p38 MAPK at 10 uM by ELISA.
A short description of assay [2]: Inhibition of p38 MAPK by ELISA. A general note: In an ELISA, binding on a coated surface is turned into a signal by an enzyme label.

The values below come from ChEMBL document CHEMBL1137773, “Novel lead structures for p38 MAP kinase via FieldScreen virtual screening” (J Med Chem, 2009).

As a reminder, the inhibition is the change of the read-out against control, counted positive when it falls. One may read the IC50 as the concentration that inhibits the measured activity by half.

Molecule `O=C(Nc1ccc(F)cc1)c1cccc(S(=O)(=O)Nc2ccccc2)c1` displayed an inhibition in assay [1] of 15%.

In the case of `C=CCNc1sc(C(=O)c2ccc(F)cc2)c(N)c1C#N`, in assay [1], the inhibition worked out at 46%.

In assay [1], `Cc1onc(-c2c(Cl)cccc2Cl)c1C(=O)N1CCCCC1C` (stereo unspecified) showed an inhibition of 14%.

For `CCOC(=O)C(C)Sc1nc2c(c(=O)n1-c1ccc(F)cc1)SCC2` (stereo unspecified), the inhibition in assay [1] was 23%.

On to `Cc1ccccc1OCc1nn2c(-c3ccccc3Cl)nnc2s1`, for which the inhibition in assay [1] turned out to be 65%. Besides, the IC50 in assay [2] came to 3.51 µM.

Molecule `CC(C)(C)c1nnc2sc(COc3ccccc3)nn12` came in with an inhibition in assay [1] of 61%. In assay [2], this molecule had an IC50 of 3.98 µM.

Take `Fc1ccc(OCc2nn3c(Cc4ccccc4)nnc3s2)cc1`: the inhibition in assay [1] stood at 32%.

In assay [1], `Cc1sc(NC(=O)c2ccc(Cl)cc2)c(C(=O)c2ccccc2)c1C` gave an inhibition of 31%.

In turn, `Clc1ccc(-c2nnc3sc(CCc4ccccc4)nn23)c(Cl)c1` showed an inhibition in assay [1] of 45%.

Molecule `CCn1c(SCc2ccccc2Cl)nc2ccccc2c1=O` yielded an inhibition in assay [1] of 28%.

As to `Fc1ccc(-c2nnc3sc(CCc4ccccc4)nn23)cc1`, the inhibition in assay [1] was 32%.

As for `c1ccc(OCc2nn3c(-c4ccccc4)nnc3s2)cc1`, in assay [1], the inhibition is 39%.

In assay [1], `CCC(Oc1ccccc1)c1nn2c(-c3ccoc3C)nnc2s1` (stereo unspecified) displayed an inhibition of 31%.

In turn, `NC(=O)C(c1ccc(Cl)cc1)c1ccc(C(=O)c2ccccc2)cc1` (stereo unspecified) showed an inhibition in assay [1] of 26%.

As for `COc1ccc(OCc2nn3c(-c4ccc(Cl)cc4Cl)nnc3s2)cc1`, the inhibition in assay [1] was determined as 31%.

`Cc1sc2ncnc(SCC(=O)c3ccc(F)cc3)c2c1C` registered an inhibition in assay [1] of 24%.

`Cc1nnc2sc(COc3ccccc3)nn12`: the inhibition in assay [1] is 18%.

In assay [1], `FC(F)(F)c1nnc2sc(COc3ccccc3)nn12` showed an inhibition of 16%.

The molecule `COc1ccc(Cc2nn3c(-c4ccccc4Cl)nnc3s2)cc1` gave an inhibition in assay [1] of 83%. Besides, in assay [2], 0.44 µM corresponded to half-maximal inhibition (IC50).

Regarding `Cn1nc(CC(=O)Nc2ccc(Br)cc2)c2ccccc2c1=O`, the inhibition in assay [1] turned out to be 15%.

In turn, `Fc1ccccc1-c1nnc2sc(COc3ccccc3)nn12` yielded an inhibition in assay [1] of 73%. The molecule further showed an IC50 in assay [2] of 3.08 µM.

As for `Clc1cccc(-c2nnc3sc(COc4ccccc4)nn23)c1`, the inhibition in assay [1] stood at 3%.

Molecule `COc1ccc(-c2nnc3sc(COc4ccc(F)cc4)nn23)cc1` had an inhibition in assay [1] of 31%.

Molecule `CCc1ccc(OCC(=O)Nc2cccc3nc(C)ccc23)cc1` yielded an inhibition in assay [1] of 4%.

In the case of `Oc1ccc2ccccc2c1C1NN=C(c2ccccc2)S1` (stereo unspecified), in assay [1], the inhibition was 21%.

In assay [1], `Clc1ccccc1-c1nnc2sc(CCc3ccccc3)nn12` gave an inhibition of 72%. The same molecule displayed an IC50 in assay [2] of 2.55 µM.

Regarding `COc1ccccc1Cc1nnc2sc(COc3ccc(F)cc3)nn12`, the inhibition in assay [1] worked out at 79%. This molecule had an IC50 in assay [2] of 0.65 µM.

Consider `Cc1ccccc1Cc1nnc2sc(COc3ccccc3)nn12`, for which the inhibition in assay [1] stood at 33%.

In the case of `Cc1nn(Cc2ccccc2)c2c1C(c1ccc(Br)cc1)C(C#N)=C(N)O2` (stereo unspecified), in assay [1], the inhibition turned out to be 40%.

For `COc1ccccc1Cc1nnc2sc(COc3ccccc3)nn12`, the inhibition in assay [1] turned out to be 77%. Moreover, the IC50 in assay [2] was 0.74 µM.

With `Cc1ccc(CNC(=O)CN(c2cccc(Cl)c2)S(C)(=O)=O)cc1`, the inhibition in assay [1] is 1%.

In assay [1], `Cc1cc(-c2nnc3sc(COc4ccc(F)cc4)nn23)n(C)n1` gave an inhibition of 22%.

As for `c1ccc(CCc2nn3c(-c4ccncc4)nnc3s2)cc1`, the inhibition in assay [1] was 26%.

In the case of `CCSc1ccccc1C(=O)N1CCc2ccccc21`, the inhibition in assay [1] is 4%.

Take `CCc1cc2c(SCC(=O)Nc3ccc(Br)cc3)ncnc2s1`: the inhibition in assay [1] came out at 14%.

Take `COc1ccc(OCc2nn3c(-c4ccccc4Cl)nnc3s2)cc1`: the inhibition in assay [1] was found to be 64%. Also, the IC50 in assay [2] was 3.88 µM.

Molecule `CCC(O)Cc1nc(N)c(C#N)c(-c2ccccc2OC)c1C` (stereo unspecified) showed an inhibition in assay [1] of 20%.

As for `CC1Cc2nc(SCC(N)=O)n(-c3ccc(F)cc3)c(=O)c2S1` (stereo unspecified), in assay [1], the inhibition turned out to be 4%.

Consider `Brc1ccccc1-c1nnc2sc(COc3ccccc3)nn12`, for which the inhibition in assay [1] turned out to be 80%. In assay [2], this molecule returned an IC50 of 1.24 µM.

Consider `Cc1occc1-c1nnc2sc(C(C)Oc3ccccc3)nn12` (stereo unspecified), for which the inhibition in assay [1] amounted to 30%.

In turn, `COc1cccc(OCc2nn3c(-c4ccccc4)nnc3s2)c1` registered an inhibition in assay [1] of 11%.

In assay [1], `Cc1cccc(OCc2nn3c(-c4ccccc4Cl)nnc3s2)c1` came in with an inhibition of 76%. Also, the IC50 in assay [2] is 1.98 µM.

Take `Cc1cccc(CC(=O)N(c2ccc(Br)cc2)C2C=CS(=O)(=O)C2)c1` (stereo unspecified): the inhibition in assay [1] came to 2%.

For the molecule `COc1ccc(OCc2nnc3sc(-c4ccccc4Cl)nn23)cc1`, in assay [1], the inhibition was 34%.

`Cc1ccc(NC(=O)Nc2c(Cl)cccc2Cl)c2c1CC(C)(C)O2` gave an inhibition in assay [1] of 66%.

Turning to `COc1ccccc1NC1CC(=O)N(c2ccc(Cl)cc2)C1=O` (stereo unspecified), in assay [1], the inhibition stood at 20%.

With `CC(C)(C)c1ccc(OCc2nn3c(Cc4ccccc4)nnc3s2)cc1`, the inhibition in assay [1] was 12%.

`Cc1occc1-c1nnc2sc(COc3ccc(F)cc3)nn12` showed an inhibition in assay [1] of 21%.

With `CC(C)(Oc1ccccc1)c1nn2c(-c3ccoc3)nnc2s1`, the inhibition in assay [1] was determined as 24%.

Regarding `CC(C)(C)c1nnc2sc(COc3ccc(F)cc3)nn12`, in assay [1], the inhibition worked out at 53%. In assay [2], this molecule came in with a 50% inhibitory concentration (IC50) of 4.71 µM.

For the molecule `CC(C)Oc1ccc(OCCSc2nc(=O)c3ccccc3[nH]2)cc1`, the inhibition in assay [1] is 23%.

The molecule `Clc1ccccc1-c1nnc2sc(COc3ccccc3)nn12` gave an inhibition in assay [1] of 76%. Further, in assay [2], the IC50 is 0.79 µM.

As for `Cc1ccccc1Cc1nnc2sc(COc3ccc(F)cc3)nn12`, the inhibition in assay [1] came to 36%.

As for `O=C(c1cn(Cc2ccccc2F)c2ccccc12)C1CC1`, the inhibition in assay [1] came to 23%.
